For 15 compounds, T/C results are on record in PubChem BioAssay AID220 (DTP/NCI, 2004).

Where “and” joins values, the source holds several entries; their conditions need not be identical. Identical values can stand only once. Inconclusive results are not listed.

In this assay the test system is CD8F1 mice, subcutaneous mammary adenocarcinoma, T/C%. The assay can be described thus: NCI In Vivo Anticancer Drug Screen. Data for tumor model Mammary Adenocarcinoma CD8F1 (subcutaneous) in CD8F1. To be noted: higher = larger tumour. In a few lines: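 Ratio of treated to vehicle-control outcome, based on either survival or tumor size, in mice bearing transplantable tumors given the test compound.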

Where [1] appears, read: endpoint: median tumor weight (est.), dose: 12.5 mg/kg/injection, schedule: Q07DX005 (ip), vehicle: Klucel (hydroxypropylcellulose) (HPC).
Setting [2] is: endpoint: median tumor weight (est.), dose: 100.0 mg/kg/injection, schedule: Q07DX005 (ip), vehicle: Klucel (hydroxypropylcellulose) (HPC).
The mark [3] stands for this setting: endpoint: median tumor weight (est.), dose: 200.0 mg/kg/injection, schedule: Q07DX005 (ip), vehicle: Klucel (hydroxypropylcellulose) (HPC).
[4] abbreviates: endpoint: median tumor weight (est.), dose: 400.0 mg/kg/injection, schedule: Q07DX005 (ip), vehicle: Klucel (hydroxypropylcellulose) (HPC).
The mark [5] stands for this setting: endpoint: median tumor weight (est.), dose: 100.0 mg/kg/injection, schedule: Q07DX005 (ip), vehicle: saline with Tween-80.

On to `O=S(=O)(CCl)OCCCl`, for which the T/C was 56 % of control (endpoint: median tumor weight change, dose: 62.5 mg/kg/injection, schedule: Q01DX001 (ip), vehicle: saline with Tween-80); 60 % of control (endpoint: median tumor weight change, dose: 125.0 mg/kg/injection, schedule: Q01DX001 (ip), vehicle: saline with Tween-80); 69 % of control (endpoint: median tumor weight change, dose: 250.0 mg/kg/injection, schedule: Q01DX001 (ip), vehicle: saline with Tween-80).
For the compound `COc1cc2cc(c1Cl)N(C)C(=O)CC(OC(=O)CC(C)C)C1(C)OC1C(C)C1CC(O)(NC(=O)O1)C(OC)/C=C/C=C(C)C2` (centres undefined), the T/C reads like this: (endpoint: median tumor weight (est.), dose: 18.7 micrograms/kg/injection, schedule: Q07DX005 (ip), vehicle: saline + alcohol) 76 % of control; (endpoint: median tumor weight (est.), dose: 37.5 micrograms/kg/injection, schedule: Q07DX005 (ip), vehicle: saline + alcohol) 80 % of control; (endpoint: median tumor weight (est.), dose: 75.0 micrograms/kg/injection, schedule: Q07DX005 (ip), vehicle: saline + alcohol) 85 % of control.
Consider `O=C1CC2(C(=O)N1CN1CCCCC1)c1ccccc1-c1ccccc12`, for which the T/C under setting [1] was 99 % of control; the T/C (endpoint: median tumor weight (est.), dose: 25.0 mg/kg/injection, schedule: Q07DX005 (ip), vehicle: Klucel (hydroxypropylcellulose) (HPC)) is 71 % of control; the T/C under setting [2] was 85 % of control; the T/C under setting [3] was 62 % of control; the T/C under setting [4] was 21 % of control.
Regarding `CCC1=C[C@H]2CN(CCc3c([nH]c4ccccc34)[C@@](C(=O)OC)(c3cc4c(cc3OC)N(C)[C@H]3[C@@](O)(C(=O)NC)[C@H](OC(C)=O)[C@]5(CC)C=CCN6CC[C@]43[C@@H]65)C2)C1`, the T/C is 93 % of control (endpoint: median tumor weight (est.), dose: 0.03 mg/kg/injection, schedule: Q07DX005 (ip), vehicle: water); 98 % of control (endpoint: median tumor weight (est.), dose: 0.06 mg/kg/injection, schedule: Q07DX005 (ip), vehicle: water); 91 % of control (endpoint: median tumor weight (est.), dose: 0.12 mg/kg/injection, schedule: Q07DX005 (ip), vehicle: water); 86 % of control (endpoint: median tumor weight (est.), dose: 0.5 mg/kg/injection, schedule: Q07DX005 (ip), vehicle: saline); 73 % of control (endpoint: median tumor weight (est.), dose: 0.5 mg/kg/injection, schedule: Q07DX005 (ip), vehicle: water); 46 % of control (endpoint: median tumor weight (est.), dose: 1.0 mg/kg/injection, schedule: Q07DX005 (ip), vehicle: saline). For the same compound, the T/C runs as follows: (endpoint: median tumor weight (est.), dose: 1.0 mg/kg/injection, schedule: Q07DX005 (ip), vehicle: water) 57 % of control; (endpoint: median tumor weight (est.), dose: 2.0 mg/kg/injection, schedule: Q07DX005 (ip), vehicle: water) 3 % of control.
As for `COc1cccc2c1C(=O)c1c(O)c3c(c(O)c1C2=O)C[C@H](O)C[C@@H]3OC1CC(N)C(O)C(C)O1` (some centres undefined), the T/C was 68 % of control (endpoint: median tumor weight (est.), dose: 0.78 mg/kg/injection, schedule: Q07DX005 (ip), vehicle: saline); 79 % of control (endpoint: median tumor weight (est.), dose: 1.56 mg/kg/injection, schedule: Q07DX005 (ip), vehicle: saline); 82 % of control (endpoint: median tumor weight (est.), dose: 3.12 mg/kg/injection, schedule: Q07DX005 (ip), vehicle: saline); 84 % of control (endpoint: median tumor weight (est.), dose: 6.25 mg/kg/injection, schedule: Q07DX005 (ip), vehicle: saline); 70 % of control (endpoint: median tumor weight (est.), dose: 12.5 mg/kg/injection, schedule: Q07DX005 (ip), vehicle: saline).
As for `C[C@]12C=CC(=O)C=C1CC[C@@H]1[C@@H]2[C@@H](O)C[C@@]2(C)[C@H]1CC[C@]2(O)C(=O)CO`, the T/C was 111 % of control (endpoint: median tumor weight change, dose: 100.0 mg/kg/injection, schedule: Q01DX001 (ip), vehicle: Klucel (hydroxypropylcellulose) (HPC)); 67 % of control and 87 % of control and 90 % of control (endpoint: median tumor weight change, dose: 200.0 mg/kg/injection, schedule: Q01DX001 (ip), vehicle: Klucel (hydroxypropylcellulose) (HPC)); 32 % of control and 38 % of control and 52 % of control (endpoint: median tumor weight change, dose: 800.0 mg/kg/injection, schedule: Q01DX001 (ip), vehicle: Klucel (hydroxypropylcellulose) (HPC)); 14 % of control (endpoint: median tumor weight change, dose: 1600.0 mg/kg/injection, schedule: Q01DX001 (ip), vehicle: Klucel (hydroxypropylcellulose) (HPC)).
Turning to `NC(=O)/C=C/c1c[nH]c2nccnc12`, the T/C runs as follows: (endpoint: median tumor weight change, dose: 31.25 mg/kg/injection, schedule: Q01DX001 (ip), vehicle: water) 124 % of control; (endpoint: median tumor weight change, dose: 62.5 mg/kg/injection, schedule: Q01DX001 (ip), vehicle: water) 73 % of control; (endpoint: median tumor weight change, dose: 125.0 mg/kg/injection, schedule: Q01DX001 (ip), vehicle: water) 58 % of control.
Take `O=NN(CCCl)C(=O)NCCO`: the T/C (endpoint: median tumor weight change, dose: 4.0 mg/kg/injection, schedule: Q01DX001 (ip), vehicle: water) was 92 % of control; the T/C (endpoint: median tumor weight change, dose: 8.0 mg/kg/injection, schedule: Q01DX001 (ip), vehicle: water) is 86 % of control; the T/C (endpoint: median tumor weight change, dose: 16.0 mg/kg/injection, schedule: Q01DX001 (ip), vehicle: water) is 58 % of control.
With `CC1c2ccccc2CC(CCN(C)C)c2ccccc21` (centres undefined), the T/C runs as follows: (endpoint: median tumor weight change, dose: 1.95 mg/kg/injection, schedule: Q01DX001 (ip), vehicle: saline with Tween-80) 76 % of control; (endpoint: median tumor weight change, dose: 3.9 mg/kg/injection, schedule: Q01DX001 (ip), vehicle: saline with Tween-80) 71 % of control; (endpoint: median tumor weight change, dose: 7.8 mg/kg/injection, schedule: Q01DX001 (ip), vehicle: saline with Tween-80) 87 % of control; (endpoint: median tumor weight change, dose: 15.62 mg/kg/injection, schedule: Q01DX001 (ip), vehicle: saline with Tween-80) 73 % of control.
With `CN(C)N=Nc1ccc(S(N)(=O)=O)cc1`, the T/C under setting [1] was 225 % of control and 117 % of control; the T/C (endpoint: median tumor weight (est.), dose: 50.0 mg/kg/injection, schedule: Q07DX005 (ip), vehicle: Klucel (hydroxypropylcellulose) (HPC)) was 213 % of control and 73 % of control; the T/C under setting [2] was 72 % of control and 93 % of control; the T/C under setting [3] is 48 % of control; the T/C under setting [4] was 22 % of control.
Regarding `CCCCCCCC(=O)N/N=C(\CO)[C@]1(O)Cc2c(O)c3c(c(O)c2[C@@H](OC2CC(N)C(O)C(C)O2)C1)C(=O)c1c(OC)cccc1C3=O` (some centres undefined), the T/C by setting is: (endpoint: median tumor weight (est.), dose: 1.5 mg/kg/injection, schedule: Q07DX005 (ip), vehicle: saline) 76 % of control; (endpoint: median tumor weight (est.), dose: 3.0 mg/kg/injection, schedule: Q07DX005 (ip), vehicle: saline) 110 % of control; (endpoint: median tumor weight (est.), dose: 6.0 mg/kg/injection, schedule: Q07DX005 (ip), vehicle: saline) 37 % of control; (endpoint: median tumor weight (est.), dose: 12.0 mg/kg/injection, schedule: Q07DX005 (ip), vehicle: saline) 4 % of control.
`CN(C)CCOc1ccc2c(c1)C/C(=C/c1ncc([N+](=O)[O-])n1C)C2=O`: the T/C reads like this: (endpoint: median tumor weight (est.), dose: 12.5 mg/kg/injection, schedule: Q07DX005 (ip), vehicle: saline with Tween-80) 113 % of control; (endpoint: median tumor weight (est.), dose: 25.0 mg/kg/injection, schedule: Q07DX005 (ip), vehicle: saline with Tween-80) 100 % of control; (endpoint: median tumor weight (est.), dose: 50.0 mg/kg/injection, schedule: Q07DX005 (ip), vehicle: saline with Tween-80) 93 % of control; under setting [5], 61 % of control.
With `CC(=O)C(=O)O.CC(=O)C(=O)O.[NH-]C1CCCCC1[NH-].[Pt+2]` (centres undefined), the T/C is 70 % of control (endpoint: median tumor weight change, dose: 15.0 mg/kg/injection, schedule: Q01DX001 (ip), vehicle: dextrose); 79 % of control (endpoint: median tumor weight change, dose: 30.0 mg/kg/injection, schedule: Q01DX001 (ip), vehicle: dextrose); 51 % of control (endpoint: median tumor weight change, dose: 60.0 mg/kg/injection, schedule: Q01DX001 (ip), vehicle: dextrose); -38 % of control (endpoint: median tumor weight change, dose: 62.5 mg/kg/injection, schedule: Q01DX001 (ip), vehicle: dextrose); 45 % of control (endpoint: median tumor weight change, dose: 120.0 mg/kg/injection, schedule: Q01DX001 (ip), vehicle: dextrose).
With `O=S(=O)(O)O`, the T/C (endpoint: median tumor weight change, dose: 62.5 mg/kg/injection, schedule: Q01DX001 (ip), vehicle: Klucel (hydroxypropylcellulose) (HPC)) is 101 % of control.
As to `Cn1ccc(=Nc2ccc(NC(=O)c3ccc(N=c4ccn(C)c5ccc([N+](=O)[O-])cc45)cc3[N+](=O)[O-])cc2)cc1`, the T/C reads like this: under setting [5], 48 % of control; (endpoint: median tumor weight (est.), dose: 200.0 mg/kg/injection, schedule: Q07DX005 (ip), vehicle: saline with Tween-80) 124 % of control.
